In patent US20250230193A1, “CYCLIC COMPOUND HAVING SELECTIVE KRAS INHIBITORY EFFECT ON HRAS AND NRAS” (CHUGAI SEIYAKU KABUSHIKI KAISHA, priority 2022, published 2025):
Where a SMILES comes first, the peptide text is derived from it. Bridges are numbered along the chain shown (N, C = ends). [ ]: non-standard residue; d: D form. The star is where a group is joined. hPhe(3,5-F2-4-CF3) = N[C@@H](CCc1cc(F)c(C(F)(F)F)c(F)c1)C(=O)O; hPhe(3-Cl-4-CF3) = N[C@@H](CCc1ccc(C(F)(F)F)c(Cl)c1)C(=O)O; NPrPhe(4-CF3) = CCCN[C@@H](Cc1ccc(C(F)(F)F)cc1)C(=O)O; NMeGly(cPent) = CN[C@H](C(=O)O)C1CCCC1; NMeD = CN[C@@H](CC(=O)O)C(=O)O; NMeL = CN[C@@H](CC(C)C)C(=O)O; Iva = CC[C@](C)(N)C(=O)O; Morpholide = C1CN(*)CCO1; Ac5c = NC1(C(=O)O)CCCC1; Aze = O=C(O)[C@@H]1CCN1; Sar = CNCC(=O)O

Legend:
[1] = biological target: GDP-bound HRAS wild-type protein (Homo sapiens, UniProt P01112); assay: Binding to HRAS by surface plasmon resonance (SPR), Single Cycle Kinetics
[2] = biological target: GDP-bound NRAS wild-type protein (Homo sapiens, UniProt P01111); assay: Binding to NRAS by surface plasmon resonance (SPR), Single Cycle Kinetics
[3] = KD ratio, GDP-bound HRAS wild-type vs GDP-bound KRAS wild-type, SPR
[4] = KD ratio, GDP-bound NRAS wild-type vs GDP-bound KRAS wild-type, SPR

Chain of GDP-bound HRAS wild-type protein (P01112 whole entry): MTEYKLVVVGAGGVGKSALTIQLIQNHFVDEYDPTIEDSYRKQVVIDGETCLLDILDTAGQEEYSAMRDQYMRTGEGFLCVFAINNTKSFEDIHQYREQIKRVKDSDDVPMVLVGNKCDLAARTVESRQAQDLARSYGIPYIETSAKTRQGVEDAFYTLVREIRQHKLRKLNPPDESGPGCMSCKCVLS
Chain of GDP-bound NRAS wild-type protein (P01111 whole entry): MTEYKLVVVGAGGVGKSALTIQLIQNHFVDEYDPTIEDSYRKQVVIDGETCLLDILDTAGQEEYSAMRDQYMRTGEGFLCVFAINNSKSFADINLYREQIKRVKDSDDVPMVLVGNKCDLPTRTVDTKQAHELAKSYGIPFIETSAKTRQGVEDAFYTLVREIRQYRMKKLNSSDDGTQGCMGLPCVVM

CCCN1C(=O)[C@@H]2CCN2C(=O)[C@H](C)NC(=O)[C@H]([C@@H](C)CC)NC(=O)[C@H](CC(C)C)N(C)C(=O)C[C@@H](C(=O)N2CCOCC2)N(C)C(=O)[C@H](C2CCCC2)N(C)C(=O)C2(CCCC2)NC(=O)[C@@H]2CCCN2C(=O)[C@H](CCc2ccc(C(F)(F)F)c(Cl)c2)NC(=O)CN(C)C(=O)[C@@H]1Cc1ccc(C(F)(F)F)cc1 [PP0078] ([NMeL]IA[Aze][NPrPhe(4-CF3)][Sar][hPhe(3-Cl-4-CF3)]P[Ac5c][NMeGly(cPent)][NMeD]-Morpholide; lactam N-11)
HRAS/KRAS (ratio of KD for GDP-bound HRAS wild-type to KD for KRAS) ([1]; KD ratio HRAS/KRAS, SPR): B (a compound having 3 or more and less than 10 is denoted as B)
NRAS/KRAS (ratio of KD for GDP-bound NRAS wild-type to KD for KRAS) ([2]; KD ratio NRAS/KRAS, SPR): C (A compound having a KD ratio of 0.1 or more and less than 3 is denoted as C)

CC[C@H](C)[C@@H]1NC(=O)[C@H](C)N(C)C(=O)C[C@@H](C(=O)N2CCOCC2)N(C)C(=O)[C@H](C2CCCC2)N(C)C(=O)C2(CCC2)NC(=O)[C@@H]2CC(F)(F)CN2C(=O)[C@H](CCc2cc(F)c(C(F)(F)F)c(F)c2)NC(=O)CN(C)C(=O)[C@H](Cc2ccc(C(F)(F)F)cc2)N2CCCCC[C@@H](C2=O)N(C)C(=O)CN(C)C1=O [PP0471]
HRAS/KRAS (ratio of KD value with respect to GDP-bound HRAS wild-type protein to KD value with respect to KRAS) ([1]; KD ratio HRAS/KRAS, SPR): B (a compound having 3 or more and less than 10 is denoted as B)
NRAS/KRAS (ratio of KD value with respect to GDP-bound NRAS wild-type protein to KD value with respect to KRAS) ([2]; KD ratio NRAS/KRAS, SPR): B (a compound having 3 or more and less than 10 is denoted as B)

CCC(CC)[C@H]1C(=O)N(C)[C@H](C(=O)N(C)C)CC(=O)N(C)[C@@H](COC)C(=O)N[C@@H]([C@@H](C)CC)C(=O)N(C2CC2)CC(=O)N(C)[C@H]2C/C=C\CCN(C2=O)[C@@H](CC2CCC(F)(F)CC2)C(=O)N(C)CC(=O)N[C@@H](CCc2cc(F)c(C(F)(F)F)c(F)c2)C(=O)N2C[C@H](OC(C)C)C[C@H]2C(=O)NC2(CC(C)(C)C2)C(=O)N1C [PP2523]
HRAS/KRAS (ratio of KD value with respect to GDP-bound HRAS wild-type protein to KD value with respect to KRAS) ([1]; KD ratio HRAS/KRAS, class symbols): A (a compound having 10 or more and less than 20 is denoted as A)
NRAS/KRAS (ratio of KD value with respect to GDP-bound NRAS wild-type protein to KD value with respect to KRAS) ([2]; KD ratio NRAS/KRAS, class symbols): A (a compound having 10 or more and less than 20 is denoted as A)

CCO[C@@H]1C[C@H]2C(=O)N(C)C3(CCC3)C(=O)N(C)[C@@H](C3CCCC3)C(=O)N(C)[C@H](C(=O)N(C)C)CC(=O)N(C)[C@@H](CC)C(=O)N[C@@H]([C@@H](C)CC)C(=O)N(C)CC(=O)N(C)[C@H]3C/C=C\CCN(C3=O)[C@@H](Cc3ccc(C)cc3)C(=O)N(C)CC(=O)N[C@@H](CCc3cc(F)c(C(F)(F)F)c(F)c3)C(=O)N2C1 [PP1781]
HRAS/KRAS (ratio of KD value for HRAS to KD value for KRAS) [1, 3]: B (a compound having 3 or more and less than 10 is denoted as B)
NRAS/KRAS (ratio of KD value for NRAS to KD value for KRAS) [2, 4]: A (a compound having 10 or more and less than 20 is denoted as A)

CCO[C@@H]1C[C@H]2C(=O)NC3(CCC3)C(=O)N(C)[C@@H](C3CCCC3)C(=O)N(C)[C@H](C(=O)N3CCOCC3)CC(=O)N(C)[C@@H](COC)C(=O)N[C@@H]([C@@H](C)CC)C(=O)N(C)CC(=O)N(C)[C@H]3CCCCCN(C3=O)[C@@H](Cc3ccc(C(F)(F)F)cc3)C(=O)N(C)CC(=O)N[C@@H](CCc3ccc(C(F)(F)F)c(Cl)c3)C(=O)N2C1 [PP0849]
HRAS/KRAS (ratio of KD value with respect to HRAS to KD value with respect to KRAS) [1, 3]: B (a compound having 3 or more and less than 10 is denoted as B)
NRAS/KRAS (ratio of KD value with respect to NRAS to KD value with respect to KRAS) [2, 4]: B (a compound having 3 or more and less than 10 is denoted as B)

CCO[C@@H]1C[C@H]2C(=O)NC3(CC(C)(C)C3)C(=O)N(C)[C@@H](C(CC)CC)C(=O)N(C)[C@H](C(=O)N(C)C)CC(=O)N(C)[C@@H](CC3CCC3)C(=O)N[C@@H]([C@@H](C)CC)C(=O)N(C)CC(=O)N(C)[C@H]3C/C=C\CCN(C3=O)[C@@H](Cc3ccc(C(F)(F)F)cc3)C(=O)N(C)CC(=O)N[C@@H](CCc3ccc(C(F)(F)F)c(Cl)c3)C(=O)N2C1 [PP2138]
HRAS/KRAS (ratio of KD value with respect to HRAS to KD value with respect to KRAS) ([1]; SPR, GDP-bound HRAS wild-type vs GDP-bound KRAS wild-type): A (a compound having 10 or more and less than 20 is denoted as A)
NRAS/KRAS (ratio of KD value with respect to NRAS to KD value with respect to KRAS) ([2]; SPR, GDP-bound NRAS wild-type vs GDP-bound KRAS wild-type): A (a compound having 10 or more and less than 20 is denoted as A)

CCCN1C(=O)CN(C)C(=O)CN(C)C(=O)[C@H]([C@@H](C)CC)NC(=O)[C@H](CC(C)C)N(C)C(=O)C[C@@H](C(=O)N(C)C)N(C)C(=O)[C@H](C2CCCC2)N(C)C(=O)[C@](C)(CC)NC(=O)[C@@H]2CCCN2C(=O)[C@H](CCc2cc(F)c(C(F)(F)F)c(F)c2)NC(=O)CN(C)C(=O)[C@@H]1Cc1ccc(C(F)(F)F)cc1 [PP0805] ([NMeL]I[Sar][Sar][NPrPhe(4-CF3)][Sar][hPhe(3,5-F2-4-CF3)]P[Iva][NMeGly(cPent)][NMeD]-NMe2; lactam N-11)
HRAS/KRAS (ratio of KD value with respect to GDP-bound HRAS wild-type protein to KD value with respect to KRAS) ([1]; KD ratio HRAS/KRAS, SPR): C (A compound having a KD ratio of 0.1 or more and less than 3 is denoted as C)
NRAS/KRAS (ratio of KD value with respect to GDP-bound NRAS wild-type protein to KD value with respect to KRAS) ([2]; KD ratio NRAS/KRAS, SPR): B (a compound having 3 or more and less than 10 is denoted as B)
